Measurements published in ChEMBL document CHEMBL3431459, “Roche carnitine palmitoyltransferase modulator screening data (supplementary data associated with the publication CHEMBL2216752)”.
Values after ≈ are worked out from the molar mass of the structure shown.

Tests used:
[1] = target: T1, Carnitine O-palmitoyltransferase 1, liver isoform (Homo sapiens, UniProt P50416); test: (§1) SUPPLEMENTARY: Inhibition of Carnitine palmitoyltransferase 1, liver isoform
T1 sequence (P50416 whole entry): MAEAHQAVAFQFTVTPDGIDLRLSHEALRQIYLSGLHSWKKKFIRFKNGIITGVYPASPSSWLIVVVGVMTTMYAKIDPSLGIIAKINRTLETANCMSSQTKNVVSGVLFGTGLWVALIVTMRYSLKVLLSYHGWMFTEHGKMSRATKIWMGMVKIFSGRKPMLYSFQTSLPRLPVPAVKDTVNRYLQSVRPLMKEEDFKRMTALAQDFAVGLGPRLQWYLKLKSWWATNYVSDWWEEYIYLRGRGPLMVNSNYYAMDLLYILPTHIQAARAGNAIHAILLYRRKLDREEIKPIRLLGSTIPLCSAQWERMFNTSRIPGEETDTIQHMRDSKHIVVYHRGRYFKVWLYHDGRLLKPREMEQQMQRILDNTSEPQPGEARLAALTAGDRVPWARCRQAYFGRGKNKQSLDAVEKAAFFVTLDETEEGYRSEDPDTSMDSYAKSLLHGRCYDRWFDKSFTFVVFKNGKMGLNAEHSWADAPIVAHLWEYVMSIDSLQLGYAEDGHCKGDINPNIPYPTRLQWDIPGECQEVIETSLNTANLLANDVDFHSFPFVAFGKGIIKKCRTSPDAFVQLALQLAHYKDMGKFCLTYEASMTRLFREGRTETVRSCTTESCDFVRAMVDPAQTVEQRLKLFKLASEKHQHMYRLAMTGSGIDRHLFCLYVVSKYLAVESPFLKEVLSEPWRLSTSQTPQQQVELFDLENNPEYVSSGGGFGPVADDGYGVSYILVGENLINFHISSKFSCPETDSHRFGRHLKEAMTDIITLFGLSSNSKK

[2] = target: T2, Carnitine O-palmitoyltransferase 1, muscle isoform (Homo sapiens, UniProt Q92523); test: SUPPLEMENTARY: Inhibition of Carnitine palmitoyltransferase 1, muscle isoform; set-up: species or system Muscle tissue
T2 sequence (Q92523 whole entry): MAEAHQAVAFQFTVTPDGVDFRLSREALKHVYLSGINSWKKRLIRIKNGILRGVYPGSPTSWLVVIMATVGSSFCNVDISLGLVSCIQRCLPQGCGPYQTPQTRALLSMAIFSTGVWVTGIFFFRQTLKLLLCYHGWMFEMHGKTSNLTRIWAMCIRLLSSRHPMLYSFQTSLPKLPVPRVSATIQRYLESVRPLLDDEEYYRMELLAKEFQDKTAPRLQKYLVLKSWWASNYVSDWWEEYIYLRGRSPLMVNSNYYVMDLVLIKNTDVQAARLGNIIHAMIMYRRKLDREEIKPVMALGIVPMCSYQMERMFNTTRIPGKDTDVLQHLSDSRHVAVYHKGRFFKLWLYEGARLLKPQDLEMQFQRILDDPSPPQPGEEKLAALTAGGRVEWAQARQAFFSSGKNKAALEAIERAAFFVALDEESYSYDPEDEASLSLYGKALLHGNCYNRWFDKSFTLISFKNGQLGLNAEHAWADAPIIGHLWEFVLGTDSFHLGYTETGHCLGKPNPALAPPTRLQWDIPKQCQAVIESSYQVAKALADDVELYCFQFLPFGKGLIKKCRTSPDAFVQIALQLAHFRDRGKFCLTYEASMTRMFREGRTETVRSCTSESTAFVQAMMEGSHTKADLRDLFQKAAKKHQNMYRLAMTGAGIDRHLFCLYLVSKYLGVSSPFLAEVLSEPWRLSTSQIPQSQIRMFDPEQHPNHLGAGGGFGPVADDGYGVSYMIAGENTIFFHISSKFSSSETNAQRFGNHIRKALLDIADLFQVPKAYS

[3] = SUPPLEMENTARY: Lipophilicity (log D) Determination by high-throughput shake-flask; format: physicochemical; conditions: octanol/water
[4] = SUPPLEMENTARY: PAMPA permeability assay; format: physicochemical; conditions: read-out: Permeability
[5] = target: T3, Carnitine O-palmitoyltransferase 2, mitochondrial (Rattus norvegicus, UniProt P18886); test: (§2) SUPPLEMENTARY: Inhibition of Carnitine palmitoyltransferase 2
T3 sequence (P18886 whole entry): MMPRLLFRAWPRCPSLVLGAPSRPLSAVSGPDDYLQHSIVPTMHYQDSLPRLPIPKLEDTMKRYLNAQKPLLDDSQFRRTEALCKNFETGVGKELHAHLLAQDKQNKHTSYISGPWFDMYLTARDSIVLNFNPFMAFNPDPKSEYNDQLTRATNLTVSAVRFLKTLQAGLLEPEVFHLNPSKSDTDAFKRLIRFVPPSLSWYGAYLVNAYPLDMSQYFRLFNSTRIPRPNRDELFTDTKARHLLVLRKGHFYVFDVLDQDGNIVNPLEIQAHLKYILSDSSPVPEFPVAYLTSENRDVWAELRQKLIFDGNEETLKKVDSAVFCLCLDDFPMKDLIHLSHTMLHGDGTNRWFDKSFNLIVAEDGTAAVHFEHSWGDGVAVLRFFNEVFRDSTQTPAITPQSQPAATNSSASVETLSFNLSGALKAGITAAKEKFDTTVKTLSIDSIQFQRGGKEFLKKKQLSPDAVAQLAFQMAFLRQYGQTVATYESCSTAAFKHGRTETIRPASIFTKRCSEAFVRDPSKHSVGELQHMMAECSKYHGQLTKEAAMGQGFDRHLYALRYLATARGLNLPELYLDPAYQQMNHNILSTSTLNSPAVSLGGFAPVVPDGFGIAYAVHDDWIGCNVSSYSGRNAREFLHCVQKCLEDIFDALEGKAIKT

[6] = target: T4, Carnitine O-palmitoyltransferase 2, mitochondrial (Homo sapiens, UniProt P23786); test: as §2
T4 sequence (P23786 whole entry): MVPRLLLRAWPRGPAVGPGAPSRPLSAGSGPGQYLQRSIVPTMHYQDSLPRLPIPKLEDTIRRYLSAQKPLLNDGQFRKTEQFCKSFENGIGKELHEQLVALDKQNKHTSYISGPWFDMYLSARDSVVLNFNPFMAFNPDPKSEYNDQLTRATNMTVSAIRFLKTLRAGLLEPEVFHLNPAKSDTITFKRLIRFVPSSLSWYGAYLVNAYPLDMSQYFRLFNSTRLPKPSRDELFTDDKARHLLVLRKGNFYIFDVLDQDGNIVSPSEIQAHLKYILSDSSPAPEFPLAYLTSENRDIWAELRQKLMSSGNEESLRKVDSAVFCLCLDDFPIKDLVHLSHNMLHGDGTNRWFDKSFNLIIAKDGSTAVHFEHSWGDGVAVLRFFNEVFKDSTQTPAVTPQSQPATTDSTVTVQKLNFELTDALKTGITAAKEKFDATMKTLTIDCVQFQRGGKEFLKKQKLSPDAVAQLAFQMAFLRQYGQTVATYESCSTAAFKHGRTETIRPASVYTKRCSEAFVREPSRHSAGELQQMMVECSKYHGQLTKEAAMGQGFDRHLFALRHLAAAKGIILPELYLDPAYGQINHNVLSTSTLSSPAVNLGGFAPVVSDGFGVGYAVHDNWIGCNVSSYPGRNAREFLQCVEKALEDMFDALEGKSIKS

[7] = SUPPLEMENTARY: Lyophilisation Solubility Assay (LYSA); format: physicochemical; conditions: read-out: Kinetic_solubility
[8] = target: T5, Carnitine O-palmitoyltransferase 1, liver isoform (Rattus norvegicus, UniProt P32198); test: as §1
T5 sequence (P32198 whole entry): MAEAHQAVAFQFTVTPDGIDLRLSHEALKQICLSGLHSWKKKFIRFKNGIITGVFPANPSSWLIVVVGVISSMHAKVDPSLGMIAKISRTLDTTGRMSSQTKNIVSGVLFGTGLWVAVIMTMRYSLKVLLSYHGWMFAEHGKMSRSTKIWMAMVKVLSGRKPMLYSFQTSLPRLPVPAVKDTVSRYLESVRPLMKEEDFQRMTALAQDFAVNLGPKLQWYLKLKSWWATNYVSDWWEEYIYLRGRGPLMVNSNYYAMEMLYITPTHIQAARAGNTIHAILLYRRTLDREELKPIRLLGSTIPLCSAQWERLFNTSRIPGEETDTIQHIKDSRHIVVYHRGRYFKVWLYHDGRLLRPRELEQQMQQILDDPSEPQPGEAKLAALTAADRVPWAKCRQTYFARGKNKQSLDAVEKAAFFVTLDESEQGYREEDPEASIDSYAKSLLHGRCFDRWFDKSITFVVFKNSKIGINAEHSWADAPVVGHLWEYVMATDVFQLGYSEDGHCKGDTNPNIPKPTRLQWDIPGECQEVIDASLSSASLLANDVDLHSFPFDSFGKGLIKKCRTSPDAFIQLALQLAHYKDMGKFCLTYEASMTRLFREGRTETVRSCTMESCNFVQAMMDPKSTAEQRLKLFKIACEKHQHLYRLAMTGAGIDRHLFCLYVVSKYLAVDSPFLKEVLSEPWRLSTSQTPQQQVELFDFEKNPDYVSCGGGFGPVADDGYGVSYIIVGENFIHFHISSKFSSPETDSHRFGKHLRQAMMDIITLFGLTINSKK

Row | IC50 [1] [nM] | IC50 [2] [µM] | logD [3] | Papp [4] [×10⁻⁶ cm/s] | IC50 [5] [µM] | IC50 [6] [µM] | solubility kinetic [7] [µg/mL] | IC50 [8] [nM] | Compound
1 | 196 | 45.9 | -0.64 | 0.37 | – | 19.8 | > 547 | 594 | O=C(O)COc1cccc(-c2noc([C@H]3CCCCN3C(=O)COc3ccccc3)n2)c1
2 | 36.4 | > 100 | 3.24 | 0.65 | – | > 100 | 7 (≈ 18.4 µM) | 97.9 | O=C(COc1ccccc1)N1CCCC[C@@H]1c1nc(-c2cccc(O)c2)no1
3 | 203 | > 100 | 2.09 | 3.8 | – | 88.5 | 362 (≈ 859 µM) | 422 | CNC(=O)c1cncc(-c2noc([C@H]3CCCCN3C(=O)COc3ccccc3)n2)c1
4 | 67.2 | 30.6 | 2.16 | 4.15 | – | 15.6 | 11 (≈ 27 µM) | 205 | O=C(COc1ccccc1)N1CCCC[C@@H]1c1nc(-c2cccc(B(O)O)c2)no1
5 | 264 | > 100 | 1.65 | 2.02 | – | 23.5 | 87 (≈ 207 µM) | 1630 | NNC(=O)c1cccc(-c2n[nH]c([C@H]3CCCCN3C(=O)COc3ccccc3)n2)c1

More lines, now with the values behind:

Row | Compound | IC50 [1] [nM] | IC50 [2] [µM] | logD [3] | Papp [4] [×10⁻⁶ cm/s] | IC50 [5] [µM] | IC50 [6] [µM] | solubility kinetic [7] [µg/mL] | IC50 [8] [nM]
6 | O=C(c1nc([C@H]2CCCCN2C(=O)COc2ccccc2)no1)N1CCOCC1 | 315 | > 100 | 1.47 | 8.06 | > 100 | 34.2 | > 467 | –
7 | COc1ccc(Cl)cc1S(=O)(=O)N1CCCCc2ccc(C(=O)Nc3ccc(C(=O)O)cc3)cc21 | 289 | 14.5 | 1.5 | 2.9 | – | 17.6 | 211 (≈ 410 µM) | 181
8 | COc1ccc(Cl)cc1S(=O)(=O)N1COc2c(C)cc(C(=O)Nc3ccc(CC(=O)O)cc3)cc21 | 375 | 2.29 | 0.65 | 3.17 | > 100 | > 100 | 509 (≈ 985 µM) | –
9 | O=C(COc1ccccc1)N1CCCC[C@@H]1c1nc(-c2cccc(-c3n[nH]c(=O)o3)c2)n[nH]1 | 115 | > 100 | 2.42 | 1.7 | – | 34 | 24 (≈ 53.8 µM) | 367
10 | COc1ccc(Cl)cc1S(=O)(=O)N1CCCCc2ccc(C(=O)Nc3ccc(C(=O)O)c(Cl)c3)cc21 | 370 | 3.01 | 0.66 | 2.54 | – | 12 | 36 (≈ 65.5 µM) | 188
11 | O=C(COc1ccccc1)N1CCCC[C@@H]1c1nc(-c2cccc(-c3nnco3)c2)n[nH]1 | 80 | 0.748 | 2.66 | 3.05 | – | 86.1 | 26 (≈ 60.4 µM) | 388
12 | COc1ccc(-c2noc(C3C[S+]([O-])CCN3C(=O)COc3ccccc3)n2)cc1 (configuration not stated) | 164 | > 100 | 2.19 | 3.4 | – | > 100 | 132 (≈ 309 µM) | 244
13 | O=C(O)c1ccc(NC(=O)c2ccc3c(c2)N(S(=O)(=O)c2cccc(Cl)c2)CCO3)cc1 | 66.4 | > 100 | 2.92 | 3.01 | – | 94.7 | 2 (≈ 4.23 µM) | 89.8
14 | COCCN(C)C(=O)c1cncc(-c2noc([C@H]3CCCCN3C(=O)COc3ccccc3)n2)c1 | 165 | > 100 | 1.83 | 4.13 | – | 7.35 | > 559 | 469
15 | CCN(CC)C(=O)c1cncc(-c2noc([C@H]3CCCCN3C(=O)COc3ccccc3)n2)c1 | 217 | > 100 | 2.5 | 5.44 | – | 9.18 | 431 (≈ 930 µM) | 354
16 | O=C(COc1ccccc1)N1CCCCC1c1cc(-c2ccccc2)n[nH]1 (configuration not stated) | 159 | > 100 | 3.63 | 0.53 | – | 60.6 | 7 (≈ 19.4 µM) | 375
